# From PMC10108345, “Differentiating Inhibition Selectivity and Binding Affinity of Isocitrate Dehydrogenase 1 Variant Inhibitors” (Journal of Medicinal Chemistry, 2023)
# Tests used:
# IDH1 R132H [1] = target: T1, IDH1 R132H (Homo sapiens, UniProt O75874, R132H); assay: Differential scanning fluorimetry (DSF) thermal shift, IDH1 R132H; assay type: binding; conditions: largest change in Tm of IDH1 ([…]) with 3-100 μM inhibitor
# T1 construct: made in house; host or cells: Escherichia coli BL21(DE3) pLyS
# T1 sequence (O75874 whole entry R132H): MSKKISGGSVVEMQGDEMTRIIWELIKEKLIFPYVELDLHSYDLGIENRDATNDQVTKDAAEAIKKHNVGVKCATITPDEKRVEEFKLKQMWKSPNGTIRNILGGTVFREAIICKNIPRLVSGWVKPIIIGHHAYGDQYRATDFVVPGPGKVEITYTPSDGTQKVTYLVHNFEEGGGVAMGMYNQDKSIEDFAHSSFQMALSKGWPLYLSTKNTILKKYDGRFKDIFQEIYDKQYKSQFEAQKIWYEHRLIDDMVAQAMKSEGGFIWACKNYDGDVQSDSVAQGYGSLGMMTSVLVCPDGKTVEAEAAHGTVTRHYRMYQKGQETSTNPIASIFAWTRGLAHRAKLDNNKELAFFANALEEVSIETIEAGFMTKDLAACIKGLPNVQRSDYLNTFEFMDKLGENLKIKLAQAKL
# Method: (§1) Thermal shift experiments were carried out using Sypro Orange and a CFX96 Touch Real-Time PCR Detection System (Bio-Rad) machine.[42] […] The standard assay buffer contains 50 mM tris–HCl at pH 7.5. Various concentrations of compounds (1% DMSO final) were mixed with IDH1 for thermal stabilization studies. […] Bio-Rad CFX Manager was used to determine the melting temperature, Tm.
# wt IDH1 [2] = target: T2, wt IDH1 (Homo sapiens, UniProt O75874); assay: Non-denaturing MS binding, wt IDH1
# T2 construct: made in house; host or cells: Escherichia coli BL21(DE3) pLyS
# T2 sequence (O75874 whole entry): as the sequence (O75874 whole entry R132H) above, with H132R counted along it
# Method: (§2) Non-denaturing mass spectra were obtained using a quadrupole time-of-flight mass spectrometer (Synapt HD MS, Waters, Manchester, UK).[44],[45] […] Protein concentrations were measured using a Nanodrop spectrometer (Thermo Scientific NanoDrop One). Compounds were dissolved in MeOH to avoid DMSO interference with mass spectra. IDH1 (20 μL of 50 μM final) and the compound of interest (1–4% (v/v) MeOH) in 200 mM ammonium acetate at pH 7.5 were pipetted into wells of a sample plate of an automated chip-based nano-electrospray ion source (TriVersa Nanomate, Advion, Ithaka, NY, USA). Compounds were serially diluted in buffer and mixed with IDH1 diluted in buffer. The mixture was sprayed through a nozzle in a Nanomate chip at a spray voltage of 1.8–2.0 kV (spray backing gas pressure 0.8–1.0 psi, inlet pressure 3.8 mbar). […] Data collection and analyses used Waters MassLynx software. Mass spectra were calibrated externally using CsI solution. KD values were calculated using eq 2 as reported[46] at each compound concentration and are reported as an average across multiple concentrations. For inhibitors with a binding stoichiometry of two inhibitors/IDH dimer, the inhibitor-bound protein peak intensity used was a sum of first and second inhibitor-bound protein peak intensities. Data for the IDH1 dimer m/z = 20^+ charge state are shown. For clarity, only 2× NADPH bound protein peaks are annotated.
# wt IDH1 [3] = target: T2, wt IDH1; assay: Differential scanning fluorimetry (DSF) thermal shift, wt IDH1; assay type: binding; conditions: largest change in Tm of IDH1 ([…]) with 3-100 μM inhibitor
# Method: as §1
# IDH1 R132H [4] = target: T1, IDH1 R132H; assay: Absorbance turnover assay (NADPH, 340 nm), IDH1 R132H-catalyzed conversion of 2OG to 2HG; assay type: biochemical
# Method: IDH1 activities were measured spectrophotometrically by monitoring changes in NADPH absorbance at 340 nm.[10] […] The difference in absorbance, ΔA340, in the linear range of the reaction profile was converted to % residual activity using a DMSO control as the 100% residual activity reference. […] Experiments were performed in (at least) triplicate. The standard assay buffer for IDH1 consists of 100 mM tris–HCl, 10 mM MgCl2, 0.005% (v/v) Tween 20, pH 8.0, 0.2 mM DTT, and 0.1 mg/mL BSA. In general, compounds [25 μL, 0.4% (v/v) DMSO] were pre-incubated with IDH1 (25 μL) for 12 min, followed by addition of DL-isocitrate/2OG (25 μL) and NADP^+/NADPH (25 μL) to initiate the reaction. The substrate/cofactor concentrations were optimized by determining KM values for substrates/cofactors as described.[10]
# IDH1 R132H [5] = target: T1, IDH1 R132H; assay: Circular dichroism (CD) melting temperature, IDH1 R132H; assay type: binding; conditions: inhibitor 42 μM, IDH 4.2 μM (0.2 mg/mL); read-out: Δ Tm/°C by CD IDH1 R132H
# Method: CD spectra were acquired using a Chirascan CD spectrometer (Applied Photophysics) with a Peltier temperature-control cell holder. Experiments were carried out in a 0.1 cm path length quartz cuvette at 20 °C. […] Spectra were averaged (n = 3) and smoothed (window size = 7) using the Savitzky–Golay filter. The mean residue ellipticity (MRE) was calculated according to the formula [drawing 1] where θ is the degree of ellipticity, N is the number of amino acids, c is the concentration (mol/L), and l is the path length (cm).
# Measurements were conducted in 2 °C increments. The melting temperature was calculated using a Boltzmann sigmoidal model in GraphPad Prism v5.04.
# wt IDH1 [6] = target: T2, wt IDH1; assay: Ligand-observed 1H NMR (CPMG-edited, 700 MHz) binding, wt IDH1; conditions: line broadening, 10 μM inhibitor, 50 mM tris-D11-HCl pH 7.5
# Method: Additional solvent presaturation was applied for 2 s. Samples contained 160 μL of 10 μM compound (0.2% DMSO) in 50 mM tris-D11-HCl, pH 7.5 in 90% H2O/10% D2O (v/v). […] 200 or 400 scans per IDH concentration were recorded, and signals corresponding to the compound were integrated and processed using TopSpin 3.6.1 software.
# wt IDH1 [7] = target: T2, wt IDH1; assay: Isothermal titration calorimetry (ITC), wt IDH1; assay type: binding; conditions: 40 μM IDH1, 50 mM tris-HCl pH 7.5, 25 °C
# Method: ITC was conducted using a Malvern MicroCal PEAQ-ITC Automated machine (Malvern Panalytical). In general, IDH1 was prepared in 50 mM tris–HCl, pH 7.5, and the compounds were dissolved in the same buffer. 400 μL of cell solution containing 40 μM IDH1 [4% (v/v) DMSO] and 200 μL of the titrant containing 200 or 400 μM compound [2% or 4% (v/v) DMSO] were transferred to an ITC plate (Malvern Panalytical WEL020854-010). […] The injection setup consisted of 19 injections, with 1 initial injection of 0.4 μL and 18 subsequent injections of 2.0 μL each with 150 s between the injections. Thermodynamic parameters were obtained using MicroCal PEAQ-ITC analysis software.
# IDH1 R132H [8] = target: T1, IDH1 R132H; assay: Non-denaturing MS binding, IDH1 R132H; conditions: Figure S7b
# Method: as §2
smiles,measurement,setting,value
Cc1ccccc1C(C(=O)NC1CCCCC1)N(C(=O)Cn1ccnc1C)c1cccc(F)c1 (stereo not shown) [AGI-5198],Δ Tm/°C by DSF IDH1 R132H,IDH1 R132H [1],6.0 °C
same,"stoichiometry, inhibitors per IDH1 dimer, wt IDH1",wt IDH1 [2]; Figure S7a,1
same,Kd,"wt IDH1 [2]; IDH 50 μM, 200 mM ammonium acetate pH 7.5",608 µM
same,Δ Tm/°C by DSF wt IDH1,wt IDH1 [3],6.9 °C
same,Selectivity against IDH1 R132H over IDH1 wt,IDH1 R132H [4]; IC50 (IDH1 wt)/IC50 (IDH1 R132H),>164
same,IC50,"IDH1 R132H [4]; IDH1 R132H (30 nM), 2OG to 2HG, 100 mM tris-HCl, 10 mM MgCl2, pH 8.0",61 nM
same,ΔTm at 42 µM,IDH1 R132H [5],7.7 °C
same,Kd,wt IDH1 [6],9.1 µM
same,Kd,wt IDH1 [7],> 400 µM
same,"stoichiometry, inhibitors per IDH1 dimer, IDH1 R132H",IDH1 R132H [8],1
